Values of other authors as cited in patent publication US20240366823A1, “INSTANT ACTION AEROSOL FOR AIR SANITIZATION AND DISINFECTION” (Reckitt Benckiser LLC, priority 2021, published 2024).

Legend:
[1] = at 20° C.
[2] = ethanol, water

OCCOCCOCCO [TEG, Triethylene glycol]
vapor pressure [1]: 0.02 Pa
solubility [2]: soluble in ethanol and miscible with water
